Data taken from ChEMBL document CHEMBL1133274 (Bioorg Med Chem Lett, 2000).

Tests used:
Homo sapiens [1] = species on record: Homo sapiens; test: Cytotoxicity of compound was determined against Lo Vo colon cancer cells; format: functional, cell-based; settings: Cancer cell lines
Homo sapiens [2] = species on record: Homo sapiens; test: Cytotoxicity of compound was determined against Lo Vo colon cancer cells in presence of GUS from Escherichia coli; format: functional, cell-based; settings: Cancer cell lines

Compound: O=C(O)[C@@H]1O[C@@H](Oc2ccc(COC(=O)N(CCCl)CCCl)cc2[N+](=O)[O-])[C@@H](O)[C@@H](O)[C@@H]1O
- IC50 (Homo sapiens [1]): > 400 µM
- IC50 (Homo sapiens [2]): 95 µM
